Test results reported in the NIST ThermoML archive (doi:10.1021/je700492k).
Numbers after ± are expanded uncertainties.

Details: 101.33 kPa, Liquid, Pycnometric method

- mass density (298.15 K): 972.1 ± 0.9 kg/m3
- mass density (313.15 K): 954 ± 0.9 kg/m3
- mass density (328.15 K): 939.3 ± 0.8 kg/m3
SMILES: CC(=O)CC(C)=O [2,4-pentanedione]
